By IC50 is commonly meant the concentration that inhibits the measured activity by half.

Structures are written as SMILES. Where a name gives a salt, the structure may show the parent alone.

For one data set, the system named is SKHep-1. Kind of data set: MTT assay, cytotoxic effect on SK-HEP-1. Particulars: Table 2, metabolites, MTT after 96 h. The data set is classed as cell-based, human. The procedure:
SK-HEP-1: human liver cell cancer line, ATCC No. HTB-52, standard medium: MEM with Earle's salts+Glutamax I (Invitrogen 41090)+10% heat inactivated FCS (from Gibco, No. 10500-064); TWEAKR-positive
The cells were cultivated by the standard method, with the growth media specified in section C-1. The test was carried out by detaching the cells with a solution of Accutase in PBS (from Biochrom AG #L2143), pelletizing, resuspending in culture medium, counting and sowing into a 96-well culture plate with white bottom (from Costar #3610) (NCI H292: 2500 cells/well; SK-HEP-1: 1000 cells/well; KPL-4: 1200 cells/well; in total volume 100 μl). The cells were then incubated in an incubator at 37° C. and 5% carbon dioxide. After 48 h, the medium was replaced. The antibody drug conjugates in 10 μl of culture medium in concentrations from 10^−5M to 10^−13M were then pipetted to the cells (in triplicate), and the assay was then incubated in an incubator at 37° C. and 5% carbon dioxide. The suspension cells were counted and sown into a 96-well culture plate with white bottom (from Costar #3610) (#3610) (MOLM-13: 2000 cells/well; NB4: 7000 cells/well; MV-4-11: 5000 cells/well in a total volume of 100 μl). After 6 hours of incubation at 37° C. and 5% carbon dioxide, the medium was changed and the antibody-drug conjugates or metabolites were added by pipette in 10 μl of culture medium in concentrations of 10^−5M to 10^−13M to the cells (triplicates) in 90 μl. The batch was incubated in an incubator at 37° C. and 5% carbon dioxide. After 96 h, the cell proliferation was detected using the MTT assay (ATCC, Manassas, Va., USA, catalogue No. 30-1010K). To this end, the MTT reagent was incubated with the cells for 4 h, followed by lysis of the cells overnight by addition of the detergent. The dye formed was detected at 570 nm (Infinite M1000 pro, Tecan). The measured data were used to calculate the IC50 of the growth inhibition using the DRC (dose response curve). […]

In another data set the test system is NCI-H292. Nature of the data set: MTT assay, cytotoxic effect on NCI-H292. The data set is classed as cell-based, human. To be noted: Table 2, metabolites, MTT after 96 h. The procedure: NCI-H292: human mucoepidermoid lung carcinoma cells, ATCC-CRL-1848, standard medium: RPMI 1640 (Biochrom; #FG1215, stab. glutamine)+10% FCS (Sigma; #F2442), TWEAKR-positive; EGFR-positive,
The cells were cultivated by the standard method, with the growth media specified in section C-1. The test was carried out by detaching the cells with a solution of Accutase in PBS (from Biochrom AG #L2143), pelletizing, resuspending in culture medium, counting and sowing into a 96-well culture plate with white bottom (from Costar #3610) (NCI H292: 2500 cells/well; SK-HEP-1: 1000 cells/well; KPL-4: 1200 cells/well; in total volume 100 μl). The cells were then incubated in an incubator at 37° C. and 5% carbon dioxide. After 48 h, the medium was replaced. The antibody drug conjugates in 10 μl of culture medium in concentrations from 10^−5M to 10^−13M were then pipetted to the cells (in triplicate), and the assay was then incubated in an incubator at 37° C. and 5% carbon dioxide. The suspension cells were counted and sown into a 96-well culture plate with white bottom (from Costar #3610) (#3610) (MOLM-13: 2000 cells/well; NB4: 7000 cells/well; MV-4-11: 5000 cells/well in a total volume of 100 μl). After 6 hours of incubation at 37° C. and 5% carbon dioxide, the medium was changed and the antibody-drug conjugates or metabolites were added by pipette in 10 μl of culture medium in concentrations of 10^−5M to 10^−13M to the cells (triplicates) in 90 μl. The batch was incubated in an incubator at 37° C. and 5% carbon dioxide. After 96 h, the cell proliferation was detected using the MTT assay (ATCC, Manassas, Va., USA, catalogue No. 30-1010K). To this end, the MTT reagent was incubated with the cells for 4 h, followed by lysis of the cells overnight by addition of the detergent. The dye formed was detected at 570 nm (Infinite M1000 pro, Tecan). The measured data were used to calculate the IC50 of the growth inhibition using the DRC (dose response curve). The proliferation of cells which were not treated with test substance but were otherwise identically treated was defined as the 100% figure.
(In general: Formazan colour is commonly taken as a measure of viable cells.)

In another data set the test system is Caco-2 cells. Kind of data set: Cell permeability, flux assay using Caco-2 cells. The format is in vitro ADME. Particulars: for Papp (B-A): Caco-2, basal to apical, 2 hours. The procedure: The cell permeability of a substance can be investigated by means of in vitro testing in a flux assay using Caco-2 cells [M. D. Troutman and D. R. Thakker, Pharm. […] For this purpose, the cells were cultured for 15-16 days on 24-well filter plates. For the determination of permeation, the respective test substance was applied in a HEPES buffer to the cells either apically (A) or basally (B) and incubated for 2 hours. After 0 hours and after 2 hours, samples were taken from the cis and trans compartments. The samples were separated by HPLC (Agilent 1200, Böblingen, Germany) using reverse phase columns. The HPLC system was coupled via a Turbo Ion Spray Interface to a Triple Quadropole mass spectrometer API 4000 (AB SCIEX Deutschland GmbH, Darmstadt, Germany).
Of critical importance for toxophores which are released intracellularly is the permeability from B to A [Papp (B-A)] and the ratio of Papp (B-A) to Papp (A-B) (efflux ratio): The lower this permeability, the slower the active and passive transport processes of the substance through the monolayer of Caco-2 cells. If the efflux ratio, moreover, gives no indications as to active transport, the substance, following intracellular release, can remain in the cell for longer. As a consequence, the time available for interaction with the biochemical target (here: kinesin spindle protein KSP/Eg5) also increases.
A general note: Passage across Caco-2 layers is used to estimate intestinal permeability.

The subject of a further data set is KPL-4. Kind of data set: MTT assay, cytotoxic effect on KPL-4. The data set is classed as cell-based, human. To be noted: Table 2; metabolites; MTT after 96 h. The protocol: KPL4: human breast cancer cell line, Bayer Pharma AG (identity checked and confirmed on 19 Jul. 2012 at DSMZ), standard medium: RPMI 1640 (from Gibco; #21875-059, stab. L-glutamine)+10% heat inactivated FCS (Gibco, No. 10500-064); HER2-positive.
(§1) The cells were cultivated by the standard method, with the growth media specified in section C-1. The test was carried out by detaching the cells with a solution of Accutase in PBS (from Biochrom AG #L2143), pelletizing, resuspending in culture medium, counting and sowing into a 96-well culture plate with white bottom (from Costar #3610) (NCI H292: 2500 cells/well; SK-HEP-1: 1000 cells/well; KPL-4: 1200 cells/well; in total volume 100 μl). The cells were then incubated in an incubator at 37° C. and 5% carbon dioxide. After 48 h, the medium was replaced. […] The suspension cells were counted and sown into a 96-well culture plate with white bottom (from Costar #3610) (#3610) (MOLM-13: 2000 cells/well; NB4: 7000 cells/well; MV-4-11: 5000 cells/well in a total volume of 100 μl). […] After 96 h, the cell proliferation was detected using the MTT assay (ATCC, Manassas, Va., USA, catalogue No. 30-1010K). […] The dye formed was detected at 570 nm (Infinite M1000 pro, Tecan). The measured data were used to calculate the IC50 of the growth inhibition using the DRC (dose response curve). […]

Another data set deals with MV-4-11. Kind of data set: MTT assay, cytotoxic effect on MV-4-11. Particulars: Table 2; metabolites; MTT after 96 h. The format is cell-based, human. The protocol: (§2) C-1a: Determination of the Cytotoxic Effect of the ADCs Directed Against CD123 and CXCR5
(§3) The analysis of the cytotoxic effect of the exemplary ADCs was carried out with various cell lines:
MV-4-11: human biphenotypic B myelomonocytic leukaemia cells obtained from peripheral blood, ATCC-CRL-9591, standard medium: IMDM (ATCC: 30-2005), +10% heat inactivated FCS (Gibco, No. 10500-064); CD123-positive
as §1, with “μl).” for “μl). The cells were then incubated in an incubator at 37° C. and 5% carbon dioxide. After 48 h, the medium was replaced.”

Data set [1] addresses T1, human kinesin spindle protein KSP/Eg5 (Homo sapiens, UniProt P52732).
T1 construct: The motor domain of the human kinesin spindle protein KSP/Eg5; purchased tebu-bio/Cytoskeleton Inc 027EG01-XL
T1 sequence (P52732 18-359 limits assumed): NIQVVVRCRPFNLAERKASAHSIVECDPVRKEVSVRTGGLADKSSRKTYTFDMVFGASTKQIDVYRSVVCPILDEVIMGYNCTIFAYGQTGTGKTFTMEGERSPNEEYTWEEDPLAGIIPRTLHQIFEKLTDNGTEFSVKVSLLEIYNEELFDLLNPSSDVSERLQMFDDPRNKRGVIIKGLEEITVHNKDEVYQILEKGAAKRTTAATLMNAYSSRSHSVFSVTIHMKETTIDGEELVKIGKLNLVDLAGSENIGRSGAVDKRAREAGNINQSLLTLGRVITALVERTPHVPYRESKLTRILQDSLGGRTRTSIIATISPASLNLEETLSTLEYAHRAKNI
Kind of data set: Inhibition of the kinesin spindle protein KSP/Eg5 (ATPase activity, malachite green). The data set is classed as biochemical. Particulars: motor domain 10 nM, microtubuli, ATP 500 μM, 2 h RT. The protocol: The motor domain of the human kinesin spindle protein KSP/Eg5 (tebu-bio/Cytoskeleton Inc, No. 027EG01-XL) was incubated in a concentration of 10 nM with microtubuli (bovine or porcine, tebu-bio/Cytoskeleton Inc) stabilized with 50 μg/ml taxol (Sigma No. T7191-5MG) for 5 min at RT in 15 mM PIPES, pH 6.8 (5 mM MgCl2 and 10 mM DTT, Sigma). […] Incubation was at RT for 2 h. ATPase activity was detected by detecting the inorganic phosphate formed using malachite green (Biomol). […] The positive controls used were monastrol (Sigma, M8515-1 mg) and ispinesib (AdooQ Bioscience A10486). The individual data of the dose-activity curve are eight-fold determinations. The IC50 values are means of two independent experiments.

For another data set, the system named is MOLM-13. Nature of the data set: MTT assay, cytotoxic effect on MOLM-13. The data set is classed as cell-based, human. To be noted: Table 2; metabolites; MTT after 96 h. The protocol: as §2, §3
MOLM-13: human acute monocytic leukaemia cells (AML-M5a), DSMZ, No. ACC 554, standard medium: RPMI 1640 (from Gibco; #21875-059, stab. L-glutamine)+20% heat inactivated FCS (Gibco, No. 10500-064); CD123-positive.
as §1, with “μl).” for “μl). The cells were then incubated in an incubator at 37° C. and 5% carbon dioxide. After 48 h, the medium was replaced.”

On to `CC(C)(C)[C@H](c1cc(-c2cc(F)ccc2F)cn1Cc1ccccc1)N(CC[C@H](N)C(=O)NCCNC(=O)CNC(=O)CC(SC[C@H](N)C(=O)O)C(=O)O)C(=O)CO` (mixture of isomers) [Example Rm1, 4-[(2-{[2-({(2S)-2-Amino-4-[{(1R)-1-[1-benzyl-4-(2,5-difluorophenyl)-1H-pyrrol-2-yl]-2,2-dimethylpropyl}(glycoloyl)amino]butanoyl}amino)ethyl]amino}-2-oxoethyl)amino]-2-{[(2R)-2-amino-2-carboxyethyl]sulfanyl}-4-oxobutanoic Acid Trifluoroacetic Acid Salt], for which the IC50 in the data set with SKHep-1 (Homo sapiens, SK-HEP1) stood at 19 nM; in the data set with NCI-H292 (Homo sapiens, NCI-H292), 63.6 nM. In addition, the “Papp (B-A)” value with Caco-2 cells came out at 1.3 ×10⁻⁶ cm/s.
In the case of `CC(C)(C)[C@H](c1cc(-c2cc(F)ccc2F)cn1Cc1ccccc1)N(CC[C@H](N)C(=O)NCCNC(=O)CNC(=O)C(CC(=O)O)SC[C@H](N)C(=O)O)C(=O)CO` (mixture of isomers) [Example Rm2, 4-[(2-{[2-({(2S)-2-Amino-4-[{(1R)-1-[1-benzyl-4-(2,5-difluorophenyl)-1H-pyrrol-2-yl]-2,2-dimethylpropyl}(glycoloyl)amino]butanoyl}amino)ethyl]amino}-2-oxoethyl)amino]-3-{[(2R)-2-amino-2-carboxyethyl]sulfanyl}-4-oxobutanoic Acid Trifluoroacetic Acid Salt], the IC50 with SKHep-1 (Homo sapiens, SK-HEP1) came out at 89 nM; in the data set with NCI-H292 (Homo sapiens, NCI-H292), 276 nM.
For the compound `CC(C)(C)[C@H](c1cc(-c2cc(F)ccc2F)cn1Cc1ccccc1)N(CC[C@H](N)C(=O)NCCNC(=O)[C@@H](CCC(=O)O)NC(=O)CNC(=O)CC(SC[C@H](N)C(=O)O)C(=O)O)C(=O)CO.O=C(O)C(F)(F)F` (stereo partly drawn) [Example M1, N-(3-{[(2R)-2-Amino-2-carboxyethyl]sulfanyl}-3-carboxypropanoyl)glycyl-N-[2-({(25)-2-amino-4-[{(1R)-1-[1-benzyl-4-(2,5-difluorophenyl)-1H-pyrrol-2-yl]-2,2-dimethylpropyl}(glycoloyl)amino]butanoyl}amino)ethyl]-D-alpha-glutamine trifluoroacetic Acid Salt], the IC50 in the data set on SKHep-1 was found to be 98.8 nM; in the data set on KPL-4, 500 nM; in the data set with MV-4-11, 302 nM; in the data set on NCI-H292, 500 nM; in data set [1], 2.13 nM; in the data set on MOLM-13, 125 nM. Moreover, in the data set with Caco-2 cells, the “Papp (B-A)” value was 0.12 ×10⁻⁶ cm/s. The “Efflux ratio compared with the reference metabolites” value with Caco-2 cells (Caco-2, in words) was “reduced efflux ratio”. In the data set with Caco-2 cells (Caco-2, in words), the “Transport from the cell compared with the reference metabolites” value is recorded as “reduced transport from the cell”. Besides, the Efflux ratio with Caco-2 cells (Caco-2, ratio of Papp (B-A) to Papp (A-B)) is listed as 0.8.

Source of the values: patent US11433140B2, “Specific antibody drug conjugates (ADCs) having KSP inhibitors” (Bayer Pharma Aktiengesellschaft, priority 2016, dated 2022).
